Laboratory results published in US20180177766A1, “THERAPEUTIC AGENT FOR NEUROTROPHIC KERATOPATHY” (SENJU PHARMACEUTICAL CO., LTD., priority 2015, published 2018).

Columns and labels:
[1] = tested on: corneal sensitivity of rabbit cornea after corneal flap production; assay: Decrease of corneal sensitivity after corneal flap production in rabbit (Cochet-Bonnet corneal esthesiometer); assay type: in vivo, Japanese white rabbit; settings: 0.005% ophthalmic solution, 50 μL instillation 4 times per day for 17 days, compared with vehicle ophthalmic solution, FIG. 2 and FIG. 3
Procedure: Male Japanese white rabbits (body weight 2.80-3.32 kg) purchased from KITAYAMA LABES Co., Ltd. were used. The animals were bred in a breeding room set to room temperature 23° C.±3° C., humidity 55%±10% RH, 12 hr lighting (08:00 lighting, 20:00 lights-out) from the arrival to the test end date. A solid feed (Labo R Stock, Nosan Corporation, 100-120 g/day) was given to the animals, and the animals were allowed to freely ingest tap water, passed through a sterilizer for animal drink, from an automatic-water supply apparatus. The test was performed on an approval from the animal care and use committee based on the Act on Welfare and Management of Animals (Act No. 105 of Oct. 1, 1973, final revision: Act No. 38 of Jun. 12, 2013) and the like.
As a test substance, [3-[2-[4-isopropyl-2-(4-trifluoromethyl)phenyl-5-thiazolyl]ethyl]-5-methyl-1,2-benzisoxazol-6-yl]oxyacetic acid (hereinafter to be referred to as compound A) was used. […]
Before production of corneal flap, the anterior ocular segment of the rabbits was macroscopically observed, and the rabbits showing no abnormality were selected. Then, using Cochet-Bonnet corneal esthesiometer (manufactured by LUNEAU), the corneal sensitivity at measurement locations 1 and 2 in FIG. 1 was measured, and the rabbits showing a corneal sensitivity threshold of not less than 15 mm at both measurement locations 1 and 2 were selected. […]

[2] = tested on: corneal epithelial disorder in GK rats; assay: Corneal epithelial disorder in spontaneously diabetic Goto-Kakizaki (GK) rat, fluorescein staining score; assay type: in vivo
Procedure: Male GK rats (20 rats) (Wakuta M., et al., Invest. Ophthalmol. Vis. Sci. 2007 48 590-596) purchased from CLEA Japan, Inc. were used. Corneal epithelial disorders associated with neuropathy were found in GK rats (Wang F., et al., Am J Pathol. 2012 181 2058-2066). GK rats are originated from Wistar rats and therefore, Wistar rats were used as normal control group (7 rats). The animals were bred in a breeding room set to room temperature 23° C.±3° C., humidity 55%±10% RH, 12 hr lighting (08:00 lighting, 20:00 lights-out) from the arrival to the test end date. The animals were allowed to freely ingest a solid feed (Labo MR Stock, Nosan Corporation) and freely ingest tap water, passed through a sterilizer for animal drink, from an automatic-water supply apparatus. The test was performed on an approval from the animal care and use committee based on the Act on Welfare and Management of Animals (Act No. 105 of Oct. 1, 1973, final revision: Act No. 38 of Jun. 12, 2013) and the like.
As a test substance, compound A was used. Compound A was dissolved in the vehicle (Table 2) to 0.005% and used as an ophthalmic solution. As a control group, a vehicle ophthalmic solution made solely of a vehicle (Table 2) and free of compound A was used.
GK rats were assigned to three groups of compound A ophthalmic solution administration group (4 rats) and non-administration group and vehicle ophthalmic solution administration group (8 for each group) using a statistical analysis software (SAS clinical package ver. 5.0, SAS Institute Japan), such that mean blood glucose concentration and mean corneal epithelial disorder score measured before instillation administration were uniform.
Compound A ophthalmic solution or vehicle ophthalmic solution was administered by instillation for 14 days. Instillation administration was performed 4 times per day at 10 μL/administration to both eyes with a micropipette. The administration was not performed on the non-administration group and Wistar rats.
0.1% Sodium fluoresceinate (Wako Pure Chemical Industries, Ltd.) (5 μL) was administered by instillation and fluorescein staining of the corneal epithelium was observed using a slit lamp, whereby the degree of corneal epithelial disorder was determined. To show the degree of abnormal findings in detail, one item was added to the diagnostic criteria of the McDonald-Shadduck method and used as the diagnostic criteria of the test (Table 3). The corneal epithelial disorder was scored for each of the three (upper, middle and lower) regions and the scores of the 3 regions were added up together. The corneal epithelial disorder was observed 2, 4, 6, 8, 11 and 15 days after the instillation administration.

[3] = molecular target: T1, PPARδ (Homo sapiens, UniProt Q03181); settings: method described in Example 12 of WO 2003/033493; cited from earlier work
T1 sequence (Q03181 1-441): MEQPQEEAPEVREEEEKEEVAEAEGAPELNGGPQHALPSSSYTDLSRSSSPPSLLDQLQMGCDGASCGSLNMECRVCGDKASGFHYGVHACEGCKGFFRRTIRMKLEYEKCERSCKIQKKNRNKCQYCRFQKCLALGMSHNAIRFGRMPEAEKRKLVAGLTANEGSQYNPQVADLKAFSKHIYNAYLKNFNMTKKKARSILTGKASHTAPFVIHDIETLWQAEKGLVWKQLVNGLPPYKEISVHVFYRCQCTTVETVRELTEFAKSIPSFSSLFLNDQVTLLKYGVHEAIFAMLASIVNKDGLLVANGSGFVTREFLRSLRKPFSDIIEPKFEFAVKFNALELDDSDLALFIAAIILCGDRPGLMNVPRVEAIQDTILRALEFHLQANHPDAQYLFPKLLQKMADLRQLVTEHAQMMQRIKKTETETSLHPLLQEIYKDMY

In the case of `Cc1cc2c(CCc3sc(-c4ccc(C(F)(F)F)cc4)nc3C(C)C)noc2cc1OCC(=O)O` [compound A, [3-[2-[4-isopropyl-2-(4-trifluoromethyl)phenyl-5-thiazolyl]ethyl]-5-methyl-1,2-benzisoxazol-6-yl]oxyacetic acid], the “recovery of corneal sensitivity at measurement locations 1 and 2 after corneal flap production” value [1] is reported as “recovered faster”, the “corneal epithelial disorder, result in words” value ([2]; 0.005% ophthalmic solution for 14 days, compared with non-administration and vehicle groups) is reported as “improved” and the “corneal epithelial disorder score (sum of 3 regions)” value (from here on “corneal epithelial disorder score”) ([2]; 8 days after administration, 0.005% ophthalmic solution, 10 μL 4 times per day, both eyes) is reported as 4.06 ± 0.20. For the same compound, the “corneal epithelial disorder score” value ([2]; 11 days after administration, 0.005% ophthalmic solution, 10 μL 4 times per day, both eyes) was 4.00 ± 0.13, the “corneal epithelial disorder score” value ([2]; 15 days after administration, 0.005% ophthalmic solution, 10 μL 4 times per day, both eyes) was 4.00 ± 0.13 and the “corneal epithelial disorder score” value ([2]; before administration (baseline), mean ± spread) was 4.63 ± 0.33. The PPARδ agonist activity [3] was “confirmed to have a PPARδ agonist activity”.
